Data from US12576047B2, “Telomerase activating compounds for use in fertility and related applications” (Neuromagen Pharma Ltd, priority 2017, dated 2026).

Assays:
FSH = FSH expression by RT-PCR in pituitary gland cells; assay type: cell-based, mouse; details: 50 nM
Protocol: FIGS. 29A, 29B, 29C and 29D: The embodied compounds affect the expression of gonadotropin hormones in pituitary gland cells. Cells (L T2) derived from the mouse pituitary gland were assessed for their secretion of LH and FSH at 6 (FIGS. 29A and 29B) and 12 hours (FIGS. 29C and 29D) following treatment with the indicated embodied compounds (50 nM). FSH and LH expression was determined by RT-PCR, and quantified from 5 different experiments, as assessed for significance, using the t test, one way ANOVA.

female ICR mice = assay: Estrous cycle stage by vaginal smears; assay type: in vivo, mouse
Protocol: Female ICR mice at least 3 months old were administered embodied compounds of this invention (Compound 79 and Compound 68) (6 mg/Kg) or DMSO alone (0.5%) by subcutaneous administration. Vaginal smears were taken at baseline and at 12 hours following the administration to determine estrous cycle stage and mice were then sacrificed.

telomerase = molecular target: T1, telomerase (Mus musculus, UniProt O70372); assay: Telomerase activity in mouse ovary by TRAP assay after s.c. injection; assay type: in vivo; details: single dose 6 mg/Kg s.c., 12 hours
T1 construct: the ovaries were removed, and proteins extract used for measuring telomerase activity by TRAP assay; from tissue; host or cells: ovary of female ICR mice
T1 sequence (O70372 1-1122): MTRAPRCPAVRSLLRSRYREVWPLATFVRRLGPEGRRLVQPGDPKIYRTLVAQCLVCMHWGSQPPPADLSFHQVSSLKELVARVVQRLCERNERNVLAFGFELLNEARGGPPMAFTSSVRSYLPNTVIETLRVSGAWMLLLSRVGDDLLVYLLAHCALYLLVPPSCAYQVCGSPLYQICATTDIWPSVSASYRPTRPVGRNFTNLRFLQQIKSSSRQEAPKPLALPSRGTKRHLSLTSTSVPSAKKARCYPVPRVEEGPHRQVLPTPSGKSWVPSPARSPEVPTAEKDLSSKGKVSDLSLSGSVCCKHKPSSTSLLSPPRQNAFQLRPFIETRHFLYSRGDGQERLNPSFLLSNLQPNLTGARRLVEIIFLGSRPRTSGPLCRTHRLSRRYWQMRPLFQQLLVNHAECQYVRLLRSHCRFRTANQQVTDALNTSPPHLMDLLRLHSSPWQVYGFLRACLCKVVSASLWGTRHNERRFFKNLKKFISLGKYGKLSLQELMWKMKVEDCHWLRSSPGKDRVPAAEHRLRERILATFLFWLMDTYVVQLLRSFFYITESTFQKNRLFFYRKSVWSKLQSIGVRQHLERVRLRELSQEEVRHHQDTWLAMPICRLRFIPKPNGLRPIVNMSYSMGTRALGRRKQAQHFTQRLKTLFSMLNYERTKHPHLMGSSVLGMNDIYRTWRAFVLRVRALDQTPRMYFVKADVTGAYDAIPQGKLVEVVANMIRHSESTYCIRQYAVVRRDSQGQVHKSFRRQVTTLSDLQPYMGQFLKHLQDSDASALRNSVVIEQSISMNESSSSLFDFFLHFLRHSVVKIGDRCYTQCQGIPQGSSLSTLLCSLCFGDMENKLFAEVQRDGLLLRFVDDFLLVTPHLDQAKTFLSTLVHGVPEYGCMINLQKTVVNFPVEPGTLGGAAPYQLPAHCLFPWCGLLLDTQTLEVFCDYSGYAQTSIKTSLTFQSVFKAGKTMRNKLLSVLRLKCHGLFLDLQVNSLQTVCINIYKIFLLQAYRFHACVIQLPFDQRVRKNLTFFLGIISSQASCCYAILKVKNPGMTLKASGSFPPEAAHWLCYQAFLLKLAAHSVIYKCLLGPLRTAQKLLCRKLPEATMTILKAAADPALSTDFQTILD
Protocol: The ovaries were homogenized and centrifuged at 1200 RPM at 4° C. for 10 min, then suspended in CHAPS buffer (10 mM Tris-HCl pH-7.0, 1 mM MgCl2, 1 mM EDTA […], 0.1 mM PMSF, 0.5% 3 [(3 Cholamidopropyl)dimethylammonio]-propanesulfonic acid [CHAPS] and 10% glycerol) on ice for 30 min and centrifuged again at 13500 RPM at 4° C. for 30 min, the supernatant was collected. Total proteins concentration was determined using the Bio-Rad protein assay kit (Bio-Rad Laboratories, Germany).
Telomerase activity in mice ovary was evaluated by a slight modification of the TRAP assay [Grin, Y., T. Admoni, and E. Priel, Telomerase activity in the various regions of mouse brain: non-radioactive telomerase repeat amplification protocol (TRAP) assay. J Vis Exp, 2014 (91): p. e51865]. […] These products were separated on a 4.5% high-resolution agarose mini-gel and detected with Gel-Red solution (X10000 stock solution diluted to X3 working solution with 0.01M NaCl) for 20 minutes. […] Quantification of Telomerase Activity
TRAP assay products were quantified by densitometric analysis using the EZQuant software (EZQuant Ltd. Rehovot, Israel) and normalized to IS (Internal standard). […] The data which were normalized to the IS were calculated as % from the positive control values in each experiment. […]

[1] = injected at the diestrus or metestrus stages
[2] = single dose injected in the proestrus or estrus stages

Row | SMILES | FSH expression (FSH; 6 hours, vs untreated) | estrous cycle stage 12 hrs post treatment (female ICR mice; [1]) | estrous cycle stage 12 hrs post treatment (female ICR mice; [2]) | increase of telomerase activity in mouse ovary (telomerase; all examined ages (10 days, 18 days, 1 month, 3 months)) | FSH expression (FSH; 12 hours) | telomerase activity in mouse ovary at various ages (telomerase; ages 10 days to 3 months)
1 | CC(c1cc(Br)c(O)c(Br)c1)(c1cc(Br)c(O)c(Br)c1)c1cc(Br)c(O)c(Br)c1 [Compound 68] | decreased FSH expression relative to untreated samples | No changes in the estrous cycle stage | in the metestrus stage | up to 1.5 fold |  | 
2 | CCOCc1cc(C(C)(c2cc(COCC)c(O)c(COCC)c2)c2cc(COCC)c(O)c(COCC)c2)cc(COCC)c1O [Compound 79] |  | No changes in the estrous cycle stage | in the metestrus stage |  | decreased FSH levels | significantly increased telomerase activity only in the ovary of 3 months old mouse
